Measured values reported in patent US20150044211A1, “COMBINATION OF A 6-OXO-1,6-DIHYDRO-PYRIDAZINE DERIVATIVE HAVING ANTI-CANCER ACTIVITY WITH OTHER ANTI-TUMOR COMPOUNDS” (MERCK PATENT GMBH, priority 2012, published 2015).

How the values were obtained:
[1] = test system: human NCI-H441 NSCLC tumor cells; conditions: female CD-1 nude mice; for T/C: end of treatment (18 days), compound 100 mg/kg orally 5 days on 2 days off, erlotinib 40 then 30 mg/kg (MTD)
Procedure: (§1) Method: Female CD-1 nude mice (6-8 week old) where subcutaneously injected with human NCI-H441 NSCLC tumor cells and were divided into 4 groups (ten animals in one group) after the tumors were established. Respective groups were administered orally with the 3-(1-{3-[5-(1-Methyl-piperidin-4-ylmethoxy)-pyrimidin-2-yl]-benzyl}-6-oxo-1,6-dihydro-pyridazin-3-yl)-benzonitrile hydrochloride hydrate (100 mg/kg—5 days on and 2 days off) or with erlotinib (initial 40 mg/kg followed by 30 mg/kg (MTD)-4 days on and 4 days off followed by 3 days on and 4 days off) alone or both drugs simultaneously for 18 days. […] Statistical calculation has been done at day 7, the day with most body weight difference in erlotinib monotherapy versus combination groups.

[2] = Body weight change / tolerability in the NCI-H441 xenograft study; conditions: Day 7
Procedure: as §1

[3] = test system: luciferase-transfected human EBC-1 NSCLC tumor cells; experiment: EBC-1 NSCLC xenograft (luciferase-transfected), combination with B20.4-1; format: in vivo
Text: Formation of lung metastases was reduced and could be only detected at the end of treatment in 3/10 mice. B20.4-1 was active with a T/C of 19% and lung metastases in 4/10 mice could be detected at the end of treatment. […] Detectable formation of lung metastases could be suppressed in 10/10 mice.

[4] = test system: human H1975 NSCLC tumor cells; experiment: H1975 NSCLC xenograft, combination with cetuximab; format: in vivo; conditions: single agent 100 mg/kg orally daily for three weeks; CD-1 nude mice
Text: Method: Female CD-1 nude mice (6-8 week old) where subcutaneously injected with human H1975 NSCLC tumor cells and were divided into 4 groups (nine animals in one group) after the tumors were established.

C#Cc1cccc(Nc2ncnc3cc(OCCOC)c(OCCOC)cc23)c1 [erlotinib, reference compound]
T/C [1]: 82%
Dunn's Multiple Comparison Test, Difference in rank sum (body weight change %) ([2]; versus Vehicle): 6.333
Dunn's Multiple Comparison Test, Significant? P < 0.05? (body weight change %) ([2]; versus Vehicle): no
Dunn's Multiple Comparison Test, Summary (body weight change %) ([2]; versus Vehicle): ns

CN1CCC(COc2cnc(-c3cccc(Cn4nc(-c5cccc(C#N)c5)ccc4=O)c3)nc2)CC1.Cl.O [“A”, 3-(1-{3-[5-(1-Methyl-piperidin-4-ylmethoxy)-pyrimidin-2-yl]-benzyl}-6-oxo-1,6-dihydro-pyridazin-3-yl)-benzonitrile hydrochloride hydrate]
partial regression ([3]; SCID hairless mice, 20 days of treatment): 1/10
lung metastases detected at the end of treatment ([3]; SCID hairless mice, 20 days, ex vivo lung images): 3/10
T/C ([3]; end of treatment (20 days), female SCID hairless mice, compound 10 mg/kg orally daily, B20.4-1 20 mg/kg intraperitoneally biweekly): −20%
T/C [1]: 20%
tumor growth delay (TGD) ([1]; compound 100 mg/kg, erlotinib 40 then 30 mg/kg, 18 days): 16 days
anti-tumor activity (in words) [4]: inactive
Dunn's Multiple Comparison Test, Difference in rank sum (body weight change %) ([2]; versus Vehicle): 2.000
Dunn's Multiple Comparison Test, Significant? P < 0.05? (body weight change %) ([2]; versus Vehicle): no
Dunn's Multiple Comparison Test, Summary (body weight change %) ([2]; versus Vehicle): ns
Dunn's Multiple Comparison Test, Difference in rank sum (body weight change %) ([2]; versus erlotinib 30 mg/kg): −4.333
Dunn's Multiple Comparison Test, Significant? P < 0.05? (body weight change %) ([2]; versus erlotinib 30 mg/kg): no
Dunn's Multiple Comparison Test, Summary (body weight change %) ([2]; versus erlotinib 30 mg/kg): ns
